Key:
[1] = target: T1, IRAK1 (human purified recombinant enzyme His-TEV-IRAK1 (194-712)) (Homo sapiens, UniProt P51617); assay: IRAK1 enzymatic assay (ADP-Glo luminescence); assay type: biochemical; settings: human recombinant IRAK1, ATP 1 μM
T1 construct: His-TEV-IRAK1 (194-712); His (N); TEV cleavage site (N)
Description: IRAK1 is a human purified recombinant enzyme (His-TEV-IRAK1 (194-712)). In this assay, IRAK1 hydrolysed ATP and autophosphorylated. Measurement of IRAK-1 inhibition was performed in 384-well format based on luminescence assay (ADP-Glo™ Kinase Assay from Promega). Purified human recombinant IRAK1 (0.3 μg/ml) and serial diluted compounds in DMSO (range of concentration from 10 μM to 0.5 nM) or controls (1% DMSO) were incubated for 15 minutes at RT in assay buffer containing 50 mM Hepes pH 7.0, Fatty acid-free BSA 0.1%, Dithiothreitol (DTT) 2 mM, MgCl2 10 mM, EGTA 0.5 mM, Triton X-100 0.01%. The kinase reaction was then initiated by the addition of ATP at a concentration of 1 μM. After 2 hours of incubation at RT, the reaction was stopped and the unconsumed ATP depleted by the addition of ADP-Glo™ Reagent according to supplier instructions. After 40 minutes of incubation at RT, the Kinase Detection Reagent was then added to the assay plate according to supplier instructions. After 20 minutes of incubation at RT, the luminescence signal was measured with a luminometer (PerkinElmer Envision or equivalent reader).

[2] = target: T2, IRAK4 (human purified recombinant enzyme His-TEV-IRAK4 (1-460)) (Homo sapiens, UniProt Q9NWZ3); assay: IRAK4 enzymatic assay (ADP-Glo luminescence); assay type: biochemical; settings: human recombinant IRAK4, ATP 2 μM, STK1-biotin peptide
T2 construct: His-TEV-IRAK4 (1-460); His (N); TEV cleavage site (N)
T2 sequence (Q9NWZ3 1-460): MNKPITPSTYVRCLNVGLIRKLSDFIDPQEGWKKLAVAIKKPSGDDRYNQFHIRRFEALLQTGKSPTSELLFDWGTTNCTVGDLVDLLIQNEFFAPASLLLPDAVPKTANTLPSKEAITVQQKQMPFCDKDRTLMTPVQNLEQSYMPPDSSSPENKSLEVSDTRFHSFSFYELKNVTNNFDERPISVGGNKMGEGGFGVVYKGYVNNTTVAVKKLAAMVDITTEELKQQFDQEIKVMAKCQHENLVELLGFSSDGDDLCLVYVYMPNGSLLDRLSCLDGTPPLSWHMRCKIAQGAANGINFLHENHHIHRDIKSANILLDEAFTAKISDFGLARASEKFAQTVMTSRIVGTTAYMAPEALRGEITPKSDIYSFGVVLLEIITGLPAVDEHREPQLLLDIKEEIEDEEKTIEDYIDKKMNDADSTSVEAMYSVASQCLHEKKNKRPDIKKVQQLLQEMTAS
Description: IRAK4 is a human purified recombinant enzyme (His-TEV-IRAK4 (1-460)). In this assay, IRAK4 hydrolysed ATP, autophosphorylated and phosphorylated a Serine/Threonine generic peptidic substrate (STK: 61ST1BLC from CisBio International). Measurement of IRAK-4 inhibition was performed in 384-well format based on a luminescence assay (ADP-Glo™ Kinase Assay from Promega). Purified human recombinant IRAK4 (0.3 μg/ml) and serial diluted compounds in DMSO (range of concentration from 10 μM to 0.5 nM) or controls (1% DMSO) were incubated for 15 minutes at RT in assay buffer containing 50 mM Hepes pH 7.0, Fatty acid-free BSA 0.1%, Dithiothreitol (DTT) 2 mM, MgCl2 10 mM, EGTA 0.5 mM, Triton X-100 0.01%, MnCl2 5 mM. The kinase reaction was then initiated by the addition of ATP (2 μM) and the peptidic substrate STK1-biotin peptide (300 nM). After 2 hours of incubation at RT, the reaction was stopped and the unconsumed ATP depleted by the addition of ADP-Glo™ Reagent according to supplier instructions. After 40 minutes of incubation at RT, the Kinase Detection Reagent was then added to the assay plate according to supplier instructions. After 20 minutes of incubation at RT, the luminescence signal was measured with a plate-reading luminometer (PerkinElmer Envision or equivalent reader).

[3] = system: TLR7 induced IL-6 secretion in human mononuclear cells (PBMC's); assay: TLR7 induced IL-6 in human PBMC's; assay type: cell-based; settings: TLR7 ligand 2 uM overnight, IL-6 AlphaLISA
Description: TLR7 Induced IL-6 in Human PBMC's
Human PBMC assay was used as one of the functional assays to monitor the activity of IRAK1 and IRAK4 small molecule inhibitors on TLR7 induced IL-6 secretion in human mononuclear cells (PBMC's). Human PBMCs were prepared from buffy coats (whole blood enriched with leukocytes and platelets) obtained from healthy volunteers used either fresh or frozen were plated in assay media (RPMI+2% P/S/L-glu+10% HI-FBS) and pre-treated with compounds in DMSO/media (range of concentrations from 25 uM to 0.4 nM) or controls (0.25% DMSO) for 30 minutes at 37° C. in assay media. Following pre-treatment with IRAK1 and IRAK4 inhibitors, PBMC's were stimulated with TLR7 specific ligand (2 uM) overnight (16-18 hrs) at 37° C. After incubation supernatant was transferred to 384 well PE AlphaPlate-384 and IL-6 was quantified using Perkin Elmer IL-6 Alpha LISA kit (AL223C). Plates were read on an Envision® plate reader with Alpha Technology®.

T1 sequence (P51617 194-712): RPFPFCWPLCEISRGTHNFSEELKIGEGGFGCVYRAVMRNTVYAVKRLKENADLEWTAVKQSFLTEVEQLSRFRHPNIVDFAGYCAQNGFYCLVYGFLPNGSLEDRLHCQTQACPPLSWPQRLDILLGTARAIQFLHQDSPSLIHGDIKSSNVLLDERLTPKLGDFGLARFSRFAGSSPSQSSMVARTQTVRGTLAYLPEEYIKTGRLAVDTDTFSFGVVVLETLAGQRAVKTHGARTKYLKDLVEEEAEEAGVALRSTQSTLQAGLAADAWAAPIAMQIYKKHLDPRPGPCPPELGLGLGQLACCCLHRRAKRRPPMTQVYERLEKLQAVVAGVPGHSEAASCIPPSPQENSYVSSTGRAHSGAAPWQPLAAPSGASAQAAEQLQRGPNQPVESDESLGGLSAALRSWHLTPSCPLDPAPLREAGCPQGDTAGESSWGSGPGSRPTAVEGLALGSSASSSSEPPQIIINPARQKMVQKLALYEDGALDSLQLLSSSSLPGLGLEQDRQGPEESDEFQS

SMILES	IC50 [1]	IC50 [2]	melting point	IC50 [3]
CC(C)c1ccc(-n2nc(C(C)(C)C)cc2NC(=O)Cc2ccc(-c3nn(C)c4ncnc(N)c34)cc2)cc1 [Example 15, 2-[4-(4-Amino-1-methyl-1H-pyrazolo[3,4-d]pyrimidin-3-yl)-phenyl]-N-[5-tert-butyl-2-(4-isopropyl-phenyl)-2H-pyrazol-3-yl]-acetamide]	< 100 nM	1000 to 5000 nM		1000 to 5000 nM
Cc1ccc(-n2nc(C(C)(C)C)cc2NC(=O)Nc2ccc(-c3csc4ncnc(N)c34)cc2Cl)cc1 [Example 11, 1-[4-(4-Amino-thieno[2,3-d]pyrimidin-5-yl)-2-chloro-phenyl]-3-(5-tert-butyl-2-p-tolyl-2H-pyrazol-3-yl)-urea]	< 100 nM	1000 to 5000 nM		< 100 nM
Cc1ccc(-n2nc(C(C)(C)C)cc2NC(=O)Nc2ccc(-c3csc4ncnc(N)c34)cc2)cc1 [Example 12, 1-[4-(4-Amino-thieno[2,3-d]pyrimidin-5-yl)-phenyl]-3-(5-tert-butyl-2-p-tolyl-2H-pyrazol-3-yl)-urea]	< 100 nM	100 to 1000 nM		< 100 nM
Cc1ccc(-n2nc(C(C)(C)C)cc2NC(=O)Nc2ccc(-c3csc4ncnc(N)c34)cc2F)cc1 [Example 7, 1-[4-(4-Amino-thieno[2,3-d]pyrimidin-5-yl)-2-fluoro-phenyl]-3-(5-tert-butyl-2-p-tolyl-2H-pyrazol-3-yl)-urea]	< 100 nM	< 100 nM		< 100 nM
Cc1ccc(-n2nc(C(C)(C)C#N)cc2NC(=O)Nc2ccc(-c3csc4ncnc(N)c34)cc2Cl)cc1 [Example 22, 1-[4-(4-Amino-thieno[2,3-d]pyrimidin-5-yl)-2-chloro-phenyl]-3-[5-(cyano-dimethyl-methyl)-2-p-tolyl-2H-pyrazol-3-yl]-urea]	100 to 1000 nM	1000 to 5000 nM		> 5000 nM
Cc1ccc(-n2nc(C(C)(C)C(F)(F)F)cc2NC(=O)Nc2ccc(-c3csc4ncnc(N)c34)cc2Cl)cc1 [Example 24, 1-[4-(4-Amino-thieno[2,3-d]pyrimidin-5-yl)-2-chloro-phenyl]-3-[2-p-tolyl-5-(2,2,2-trifluoro-1,1-dimethyl-ethyl)-2H-pyrazol-3-yl]-urea]	< 100 nM	100 to 1000 nM		< 100 nM
Cc1ccc(-n2nc(C(F)(F)F)cc2NC(=O)Nc2ccc(-c3nn(C)c4ncnc(N)c34)c(F)c2)cc1 [Example 13, 1-[4-(4-Amino-1-methyl-1H-pyrazolo[3,4-d]pyrimidin-3-yl)-3-fluoro-phenyl]-3-(2-p-tolyl-5-trifluoromethyl-2H-pyrazol-3-yl)-urea]	100 to 1000 nM	> 5000 nM		100 to 1000 nM
Cc1ccc(-n2nc(C(C)(C)C)cc2NC(=O)C(O)c2ccc(-c3nn(C)c4ncnc(N)c34)cc2)cc1 (stereo not drawn) [Example 19, 2-[4-(4-Amino-1-methyl-1H-pyrazolo[3,4-d]pyrimidin-3-yl)-phenyl]-N-(5-tert-butyl-2-p-tolyl-2H-pyrazol-3-yl)-2-hydroxy-acetamide]	< 100 nM	100 to 1000 nM		100 to 1000 nM
Cc1ccc(-n2nc(C(C)(C)C)cc2NC(=O)C(=O)c2ccc(-c3nn(C)c4ncnc(N)c34)cc2)cc1 [Example 20, 2-[4-(4-Amino-1-methyl-1H-pyrazolo[3,4-d]pyrimidin-3-yl)-phenyl]-N-(5-tert-butyl-2-p-tolyl-2H-pyrazol-3-yl)-2-oxo-acetamide]	< 100 nM	< 100 nM		1000 to 5000 nM

The next lines start with results.

IC50 [1]	IC50 [2]	melting point	SMILES	IC50 [3]
< 100 nM	< 100 nM		CC(C)c1ccc(-n2nc(C(C)(C)C)cc2NC(=O)Nc2ccc(-c3nn(C)c4ncnc(N)c34)cc2F)cc1 [Example 9, 1-(4-{4-amino-1-methyl-1H-pyrazolo[3,4-d]pyrimidin-3-yl}-2-fluorophenyl)-3-{3-tert-butyl-1-[4-(propan-2-yl)phenyl]-1H-pyrazol-5-yl}urea]	< 100 nM
< 100 nM	< 100 nM		Cc1ccc(-n2nc(C(C)(C)C)cc2NC(=O)Nc2ccc(-c3nn(C)c4ncnc(N)c34)cc2Cl)cc1 [Example 5, 1-[4-(4-Amino-1-methyl-1H-pyrazolo[3,4-d]pyrimidin-3-yl)-2-chloro-phenyl]-3-(5-tert-butyl-2-p-tolyl-2H-pyrazol-3-yl)-urea]	< 100 nM
< 100 nM	< 100 nM		Cc1ccc(-n2nc(C(C)(C)C)cc2NC(=O)Nc2ccc(-c3nn(C)c4ncnc(N)c34)c(Cl)c2)cc1 [Example 8, 1-[4-(4-Amino-1-methyl-1H-pyrazolo[3,4-d]pyrimidin-3-yl)-3-chloro-phenyl]-3-(5-tert-butyl-2-p-tolyl-2H-pyrazol-3-yl)-urea]	< 100 nM
< 100 nM	100 to 1000 nM		Cc1ccc(-n2nc(C(C)(C)C)cc2NC(=O)Nc2ccc(-c3csc4ncnc(N)c34)c(F)c2)cc1 [Example 6, 1-[4-(4-Amino-thieno[2,3-d]pyrimidin-5-yl)-3-fluoro-phenyl]-3-(5-tert-butyl-2-p-tolyl-2H-pyrazol-3-yl)-urea]	< 100 nM
100 to 1000 nM	1000 to 5000 nM	228 to 230 °C	Cc1ccc(-n2nc(C(C)(C)C)cc2NC(=O)N[C@H]2CC[C@@H](c3cn(C)c4ncnc(N)c43)CC2)cc1 [Example 27, 3-[3-tert-butyl-1-(4-methylphenyl)-1H-pyrazol-5-yl]-1-[(1s,4s)-4-{4-amino-7-methyl-7H-pyrrolo[2,3-d]pyrimidin-5-yl}cyclohexyl]urea]	
< 100 nM	100 to 1000 nM		CC(C)c1ccc(-n2nc(C(C)(C)C)cc2NC(=O)Nc2ccc(-c3nn(C)c4ccnc(N)c34)cc2)cc1 [Example 14, 1-[4-(4-Amino-1-methyl-1H-pyrazolo[4,3-c]pyridin-3-yl)-phenyl]-3-[5-tert-butyl-2-(4-isopropyl-phenyl)-2H-pyrazol-3-yl]-urea]	< 100 nM
< 100 nM	100 to 1000 nM		Cc1ccc(-n2nc(C(C)(C)C)cc2NC(=O)Nc2ccc(-c3csc4ncnc(N)c34)c(Cl)c2)cc1 [Example 10, 1-[4-(4-Amino-thieno[2,3-d]pyrimidin-5-yl)-3-chloro-phenyl]-3-(5-tert-butyl-2-p-tolyl-2H-pyrazol-3-yl)-urea]	< 100 nM
< 100 nM	< 100 nM		Cc1ccc(-n2nc(C(C)(C)C)cc2NC(=O)Nc2ccc(-c3nn(C)c4ncnc(N)c34)c(F)c2)cc1 [Example 2, 1-[4-(4-Amino-1-methyl-1H-pyrazolo[3,4-d]pyrimidin-3-yl)-3-fluoro-phenyl]-3-(5-tert-butyl-2-p-tolyl-2H-pyrazol-3-yl)-urea]	< 100 nM

From US11873303B2, “Substituted pyrazoles as type II IRAK inhibitors” (Merck Patent GmbH, priority 2018, dated 2024)
